# Assays:
# H2122 cells (KRAS G12C) = test: Drug combination assay (CellTiter-Glo cell viability); type: cell-based; conditions: six days, 384-wells
# Protocol: Cells were seeded in either 96-well or 384-well plates 16 h before treatment at a density of 1000 cells per well. Then, cells were treated with varying concentrations of compound(s) as indicated in FIGS. 1-8 (384-wells) and FIGS. 10-105 (96-wells), either a single agent or in combination, for six days. The relative number of viable cells was estimated using CellTiter-Glo Luminescent Cell Viability Assay (Promega, G7573). Total luminescence was detected on a Wallac Multilabel Reader (Perkin-Elmer).
# [1] = system: cells resistant to Compound K2; test: Soft agar 3D culture; type: cell-based; conditions: combination with Compound K2 (a KRAS inhibitor); 11-14 day incubation; Gelcount cell counting
# Protocol: Two heat blocks (1× without blocks, 1× with 50 ml tube block) were heated to 44° C. Flat-bottom 96-well non-tissue culture treated assay plates (Falcon 353219) and fluid reservoirs were kept at 37° C. 2×RPMI+20% FCS (which can be stored at 4° C.) were made and warmed to 37° C. 100 ml 1.2% agarose and 0.58% agarose solution was made by adding […] sterile water to a sterile 500 ml bottle and then carefully adding 1.2 gram/0.58 gram agarose (using normal out-of-the-hood weight), avoiding bubbles, foam, and sticking of undiluted agarose to walls as much as possible. The solution was then microwaved until fully dissolved and bubbling. The solution was then cooled for 10-15 minutes at room temperature and incubated at 37° C. The solution can be stored at room temperature for future use.
# For each plate, 2 ml 1.2% agarose was mixed with 2 ml 2×RPMI+20% FCS in a 50 ml tube in a heat block by swirling the tube (minimizing pipetting up and down, as this cools the agarose too much). By double-tap (pipet is pushed in completely, liquid is taken up, then pushed out until first stop only), 40 μl 1.2% agarose/96-well was added, excluding edge 96-wells. The agarose was set at “waterpas” level and stored at 4° C. until further use. 1.2% agarose-containing plate was placed on ice for 10 minutes before plating cells.
# Cells were trypsinized and counted. […]
compound,measurement,setting,value
"C=CC(=O)Nc1cc2c(c(-c3ccc(C(C)C)cc3)c1)OCC2 [Compound T2, N-(7-(4-isopropylphenyl)-2,3-dihydrobenzofuran-5-yl)acrylamide]",% inhibition of H2122 cells (KRAS G12C),H2122 cells (KRAS G12C); combination with Compound K1 (a KRAS inhibitor),sensitizes cells resistant to Compound K1
same,% inhibition of H2122 cells (KRAS G12C),H2122 cells (KRAS G12C); combination with Compound K2 (a KRAS inhibitor),sensitizes cells resistant to Compound K2
same,soft agar 3D culture growth,[1],sensitizes cells resistant to Compound K2

# — patent US20240148733A1, “COMBINATION THERAPY” (Genentech, Inc., priority 2021, published 2024)
